Here are results for 24 compounds from ChEMBL document CHEMBL1155934, “Novel quinolinonyl diketo acid derivatives as HIV-1 integrase inhibitors: design, synthesis, and biological activities” (J Med Chem, 2008).

The source made the active and inactive calls. The rule behind the calls is not given here. Where only a bound is given, the exact number is not on record here.

The target in data set [1] is Human immunodeficiency virus type 1 integrase (Human immunodeficiency virus 1) (UniProt Q7ZJM1). Put plainly: Inhibition of HIV1 recombinant integrase in presence of manganese.
Human immunodeficiency virus type 1 integrase (Human immunodeficiency virus 1), sequence (Q7ZJM1 as listed by the source): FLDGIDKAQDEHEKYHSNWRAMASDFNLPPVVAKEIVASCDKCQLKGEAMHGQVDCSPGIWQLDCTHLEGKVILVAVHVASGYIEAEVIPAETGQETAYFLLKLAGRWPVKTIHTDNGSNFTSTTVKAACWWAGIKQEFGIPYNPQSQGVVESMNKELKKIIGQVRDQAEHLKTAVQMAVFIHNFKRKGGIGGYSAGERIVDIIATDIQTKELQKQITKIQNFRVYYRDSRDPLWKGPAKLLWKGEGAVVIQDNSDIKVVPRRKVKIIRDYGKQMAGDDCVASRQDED
In data set [2] the test system is U-937. In words: Cytotoxicity against human U937 cells after 24 hrs by MTT assay. The note with it: u-937, 24 h. A general note: Tetrazolium dyes change colour on reduction, which living cells bring about.
Data set [3] concerns the target T1, Human immunodeficiency virus type 1 integrase (Human immunodeficiency virus 1, UniProt Q7ZJM1). Put plainly: Inhibition of recombinant HIV1 integrase strand transfer activity by gel-based assay in presence of magnesium.
Data set [4] concerns the target T1, Human immunodeficiency virus type 1 integrase. Put plainly: Inhibition of recombinant HIV1 integrase 3'-end processing activity by gel-based assay in presence of magnesium.
For data set [5] the target is unchanged.
Description: Inhibition of recombinant HIV1 integrase strand transfer activity by high throughput electrochemiluminescent assay in presence of magnesium
Data set [6] relates to Human immunodeficiency virus 1. Put plainly: Antiviral activity against HIV1-infected in human H9/HTLV 3B cells after 4 days. Format: functional, organism-based. The conditions noted are these: Human immunodeficiency virus 1, 96 h.

T1 sequence (Q7ZJM1 whole entry): as the sequence (Q7ZJM1 as listed by the source) above

What is called CC50 is the concentration giving 50% cytotoxicity. One may read the IC50 as the concentration that inhibits the measured activity by half. `CCOC(=O)/C(O)=C/C(=O)c1cn(Cc2ccc(F)cc2)c2cc(N3CCCC3)ccc2c1=O`: the result in data set [1] was Active. This compound registered a CC50 in data set [2] of more than 200 µM. Moreover, the concentration for half-maximal inhibition (IC50) in data set [3] was 2.7 µM; in data set [4], 110 µM; in data set [5], 2.3 µM.

Take `CCOC(=O)/C(O)=C/C(=O)c1c[nH]c2ccc(Cl)cc2c1=O`: the IC50 in data set [3] amounted to 2.1 µM; in data set [4], 120 µM; in data set [5] it was 3.3 µM.

In the case of `CCOC(=O)/C(O)=C/C(=O)c1cn(Cc2ccc(F)cc2)c2ccc(F)cc2c1=O`, the outcome in data set [1] was Active. Also, in data set [2], the CC50 was more than 200 µM. In addition, the figures for the IC50 in data set [3], in data set [4] and in data set [5] were 0.23 µM, more than 333 µM and 0.58 µM, respectively.

As to `O=C(O)/C(O)=C/C(=O)c1cn(Cc2ccc(F)cc2)c2cc(F)ccc2c1=O`, the result in data set [1] was Active. The half-maximal cytotoxic concentration (CC50) in data set [2] is more than 200 µM. The concentration for half-maximal inhibition (IC50) in data set [3] came out at 0.05 µM; in data set [4], 4.4 µM; in data set [5], 0.02 µM.

As for `O=C(O)/C(O)=C/C(=O)c1cn(Cc2ccc(F)cc2)c2c(Cl)cccc2c1=O`, in data set [1], the outcome was Active. Besides, in data set [2], the CC50 was more than 200 µM. Besides, the values for the half-inhibitory concentration (IC50) in data set [3] and in data set [4] were 0.51 µM and 44 µM, respectively.

`CCOC(=O)/C(O)=C/C(=O)c1cn(Cc2ccc(F)cc2)c2ccccc2c1=O`: the result in data set [1] was Active. Further, the CC50 in data set [2] was found to be 99 µM. For the same compound, the IC50 in data set [3] stood at 0.44 µM; in data set [4], 135 µM; in data set [5], 0.67 µM.

What is called EC50 is the concentration needed to bring the measured effect to its halfway point. Read a high EC50 as a need for much substance. In the case of `O=C(O)C(=O)CC(=O)c1cccn1Cc1ccc(F)cc1`, the response in data set [6] was half-maximal at 1 µM (EC50).

As for `O=C(O)/C(O)=C/C(=O)c1cn(Cc2ccc(F)cc2)c2cc(Cl)c(Cl)cc2c1=O`, in data set [1], the outcome was Active. The compound also had a CC50 in data set [2] of 156 µM. For the same compound, the figures for the IC50 in data set [3], in data set [4] and in data set [5] were 0.075 µM, 11 µM and 0.033 µM, respectively.

As for `O=C(O)/C(O)=C/C(=O)c1c[nH]c2ccc(Cl)cc2c1=O`, the IC50 in data set [3] is 56 µM; in data set [4], 166 µM; in data set [5], more than 111 µM.

Consider `CCOC(=O)/C(O)=C/C(=O)c1cn(Cc2ccc(F)cc2)c2cc(Cl)c(Cl)cc2c1=O`, for which the outcome in data set [1] was Active. Moreover, half-maximal cytotoxicity in data set [2] (CC50) was put at 72 µM. Moreover, the results for the 50% inhibitory concentration (IC50) in data set [3], in data set [4] and in data set [5] were 1.8 µM, 135 µM and 3.9 µM, respectively.

Regarding `O=C(O)/C(O)=C/C(=O)c1c[nH]c2cc(Cl)ccc2c1=O`, the values for the IC50 in data set [3], in data set [4] and in data set [5] were 17 µM, more than 333 µM and 37 µM, respectively.

Take `CCOC(=O)/C(O)=C/C(=O)c1c[nH]c2cc(Cl)ccc2c1=O`: the IC50 is 224 µM in data set [3], more than 333 µM in data set [4] and more than 111 µM in data set [5].

Take `CCOC(=O)/C(O)=C/C(=O)c1cn(Cc2ccc(F)cc2)c2c(Cl)cccc2c1=O`: the result in data set [1] was Active. In data set [2], this compound had a CC50 of more than 200 µM. Further, the figures for the IC50 in data set [3], in data set [4] and in data set [5] were 5.2 µM, more than 333 µM and 32 µM, respectively.

For `CCOC(=O)/C(O)=C/C(=O)c1cn(Cc2ccc(F)cc2)c2cc(Cl)ccc2c1=O`, the outcome in data set [1] was Active. Further, the IC50 in data set [3] is 3.6 µM; in data set [4], more than 333 µM; in data set [5], 14 µM.

Regarding `CCOC(=O)/C(O)=C/C(=O)c1cn(Cc2ccc(F)cc2)c2ccc(Cl)cc2c1=O`, the outcome in data set [1] was Active. Moreover, the IC50 in data set [3] was 3 µM; in data set [4], more than 333 µM; in data set [5] it was 21 µM.

With `O=C(O)/C(O)=C/C(=O)c1cn(Cc2ccc(F)cc2)c2ccccc2c1=O`, the result in data set [1] was Active. Besides, the CC50 in data set [2] is more than 200 µM. In addition, the IC50 in data set [3] was 0.06 µM; in data set [4], 14 µM; in data set [5], 0.04 µM.

Turning to `CCOC(=O)/C(O)=C/C(=O)c1cn(Cc2ccc(F)cc2)c2cc(F)ccc2c1=O`, the result in data set [1] was Active. In data set [2], the CC50 was more than 200 µM. Besides, the figures for the IC50 in data set [3], in data set [4] and in data set [5] were 1.2 µM, more than 333 µM and 1.3 µM, respectively.

Consider `CCOC(=O)/C(O)=C/C(=O)c1cn(Cc2ccc(F)cc2)c2c(F)cccc2c1=O`, for which the outcome in data set [1] was Active. In addition, in data set [2], the CC50 is more than 200 µM. Besides, the IC50 was 5.2 µM in data set [3], more than 333 µM in data set [4] and 26 µM in data set [5].

In the case of `O=C(O)/C(O)=C/C(=O)c1cn(Cc2ccc(F)cc2)c2cc(N3CCCC3)ccc2c1=O`, in data set [1], the outcome was Active. The compound also showed a CC50 in data set [2] of more than 200 µM. Moreover, the IC50 in data set [3] came to 0.18 µM; in data set [4], 14 µM; in data set [5], 0.028 µM.

For `O=C(O)/C(O)=C/C(=O)c1cn(Cc2ccc(F)cc2)c2ccc(Cl)cc2c1=O`, the outcome in data set [1] was Active. Besides, the CC50 in data set [2] is more than 200 µM. Besides, the results for the IC50 in data set [3], in data set [4] and in data set [5] were 0.4 µM, 6.4 µM and 0.028 µM, respectively.

The compound `O=C(O)/C(O)=C/C(=O)c1ccc2c(c1)c(=O)c(C(=O)/C=C(\O)C(=O)O)cn2Cc1ccc(F)cc1` displayed a CC50 in data set [2] of more than 200 µM.

In the case of `O=C(O)/C(O)=C/C(=O)c1cn(Cc2ccc(F)cc2)c2ccc(F)cc2c1=O`, in data set [1], the result was Active. Besides, the CC50 in data set [2] is more than 200 µM. In addition, the 50% inhibitory concentration (IC50) in data set [4] stood at 2.3 µM.

`O=C(O)/C(O)=C/C(=O)c1cn(Cc2ccc(F)cc2)c2cc(Cl)ccc2c1=O`: the outcome in data set [1] was Active. Also, in data set [2], the CC50 is more than 200 µM. Further, the results for the IC50 in data set [3], in data set [4] and in data set [5] were 0.11 µM, 4 µM and 0.019 µM, respectively.

In the case of `O=C(O)/C(O)=C/C(=O)c1cn(Cc2ccc(F)cc2)c2c(F)cccc2c1=O`, the result in data set [1] was Active. In data set [2], this compound came in with a CC50 of more than 200 µM. The half-inhibitory concentration (IC50) in data set [3] is 0.16 µM; in data set [4], 16 µM; in data set [5] it was 0.018 µM.
